Results reported in patent publication US10208033B2, “β-carboline, dihydro-β-carboline and tetrahydro-β-carboline alkaloid derivatives and preparation methods same and use in aspects of preventing and treating plant viruses, fungicides and insecticides” (NANKAI UNIVERSITY, priority 2013, dated 2019).

Tests used:
cotton bollworms = assay: whole plant or invertebrate; conditions: concentration 600 mg/kg
Procedure: Experimental method of cotton bollworms: feed and drug mixing method: measure 3 mL of prepared solution and add it to about 27 g of newly prepared feed, thereby obtaining needed concentration through dilution by 10 times.

Phytophthora capsici = assay: Fungicidal (bactericidal) activity in vitro, PDA colony diameter; format: cell-based; conditions: 50 mg/kg
Bipolaria maydis = assay: organism not typed; format: cell-based; conditions: 50 mg/kg
Fusarium graminearumt = assay: microbe, parasite or virus in culture; format: cell-based; conditions: 50 mg/kg
Botrytis cinerea = assay: Fungicidal (bactericidal) activity in vitro, PDA colony diameter; format: cell-based; conditions: 50 mg/kg
armyworms = format: in vivo; conditions: concentration 600 mg/kg
Rhizoctonia cereali = assay: Fungicidal (bactericidal) activity in vitro, PDA colony diameter; format: cell-based; conditions: 50 mg/kg
[1] = tested on: tobacco mosaic virus (TMV); assay: Anti-TMV in vivo therapeutic effect; set-up: species or system tobacco mosaic virus (host Nicotiana tabacum L.cv.Xanthi NN)
[2] = tested on: tobacco mosaic virus (TMV); assay: Anti-TMV activity, overall statements on Table 1; format: in vivo, tobacco mosaic virus (host Nicotiana tabacum L.cv.Xanthi NN); conditions: 100 μg/mL versus ningnanmycin at 100 μg/mL
[3] = tested on: Colletotrichum orbiculare; assay: Fungicidal (bactericidal) activity in vitro, PDA colony diameter; format: cell-based; conditions: 50 mg/kg
[4] = tested on: tobacco mosaic virus (TMV); assay: Anti-TMV in vitro effect (half-leaf soaking); format: cell-based, tobacco mosaic virus (host Nicotiana tabacum L.cv.Xanthi NN)
Macrophoma kawatsukai = assay: Fungicidal (bactericidal) activity in vitro, PDA colony diameter; format: cell-based; conditions: 50 mg/kg
[5] = tested on: tobacco mosaic virus (TMV); assay: Anti-TMV in vivo protective effect; set-up: species or system tobacco mosaic virus (host Nicotiana tabacum L.cv.Xanthi NN)
mosquito larvae = assay: whole plant or invertebrate; conditions: 24 h
Procedure, shortened: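 Early fourth-instar Culex pipiens pallens larvae from an indoor colony, 10 per beaker, exposed to test compound at 5 ppm in water, diluted from a 1000 ppm acetone mother solution. Blank: water containing 0.5 mL test solvent.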

Sclerotinia scleotiorum = assay: Fungicidal (bactericidal) activity in vitro, PDA colony diameter; format: cell-based; conditions: 50 mg/kg
Alternaria solani = assay: as above; format: cell-based; conditions: 50 mg/kg
[6] = tested on: tobacco mosaic virus (TMV); assay: Anti-TMV in vivo inactivation; set-up: species or system tobacco mosaic virus (host Nicotiana tabacum L.cv.Xanthi NN)
potato late blight = assay: microbe, parasite or virus in culture; format: cell-based
Fusarium fujikuroi = assay: Fungicidal (bactericidal) activity in vitro, PDA colony diameter; format: cell-based; conditions: 50 mg/kg
Rhizoctonia solani = assay: as above; format: cell-based; conditions: 50 mg/kg
corn borers = conditions: concentration 600 mg/kg
cucumber fusarium wilt = assay: Fungicidal (bactericidal) activity in vitro, PDA colony diameter; format: cell-based; conditions: 50 mg/kg
Cercospora arachidicola = assay: as above; format: cell-based; conditions: 50 mg/kg

SMILES | Cotton bollworm Mortality (%) (cotton bollworms) | Bactericidal activity (%) Phytophthora capsici (Phytophthora capsici) | Bactericidal activity (%) Bipolaria maydis (Bipolaria maydis) | Bactericidal activity (%) Fusarium graminearumt (Fusarium graminearumt) | Bactericidal activity (%) Botrytis cinerea (Botrytis cinerea) | Armyworm Mortality (%) (armyworms) | Bactericidal activity (%) Rhizoctonia cereali (Rhizoctonia cereali) | Relative inhibition rate (%) In vivo therapy ([1]; treatment dose 100 μg/mL) | Relative inhibition rate (%) In vivo therapy ([1]; treatment dose 500 μg/mL) | anti-TMV activity compared with ningnanmycin [2] | Bactericidal activity (%) Colletotrichum orbiculare [3] | Relative inhibition rate (%) In vitro activity ([4]; treatment dose 100 μg/mL) | Relative inhibition rate (%) In vitro activity ([4]; treatment dose 500 μg/mL) | Bactericidal activity (%) Macrophoma kawatsukai (Macrophoma kawatsukai) | Relative inhibition rate (%) In vivo protection ([5]; treatment dose 100 μg/mL) | Relative inhibition rate (%) In vivo protection ([5]; treatment dose 500 μg/mL) | Mosquito larvae Mortality (%) (mosquito larvae; concentration 10 mg/kg) | Bactericidal activity (%) Sclerotinia scleotiorum (Sclerotinia scleotiorum) | Bactericidal activity (%) Alternaria solani (Alternaria solani) | Relative inhibition rate (%) In vivo inactivation ([6]; treatment dose 100 μg/mL) | also measured
C[C@@H]1N[C@H](C(=O)NN=Cc2ccc3c(c2)OCO3)Cc2c1[nH]c1ccccc21 [Ic-12] | 30% | 81.8% | 56.0% | 53.8% | 88.9% | 15% | 86.5% | 30.2% | 69% | equivalent to the activity of commercial variety ningnanmycin | 48.0% | 29.1% | 72.6% | 63.6% | 35.8% | 68.1% | 15% | 44.2% | 52.4% | 33.6% | Relative inhibition rate (%) In vivo inactivation ([6]; treatment dose 500 μg/mL): 74.5%; Bactericidal activity (%) potato late blight (potato late blight): 39.1%; Bactericidal activity (%) Fusarium fujikuroi (Fusarium fujikuroi): 58.8%; Bactericidal activity (%) Rhizoctonia solani (Rhizoctonia solani): 50.0%; Corn borer Mortality (%) (corn borers): 15%; Bactericidal activity (%) Cucumber fusarium wilt (cucumber fusarium wilt): 31.8%; Bactericidal activity (%) Cercospora arachidicola (Cercospora arachidicola): 63.6%
C[C@@H]1N[C@H](C(=O)NN=Cc2cccs2)Cc2c1[nH]c1ccccc21 [Ic-20, (1S, 3S)—N′-(thiophene-2-methylene)-1-methyl-2,3,4,9-tetrahydropyridino [3,4-b] indol-3-formylhydrazine] | 20% | 68.4% | 44.0% | 62.1% | 72.7% | 35% | 72.5% | 25.1% | 52.3% | equivalent to the activity of commercial variety ningnanmycin | 44.4% | 23% | 58.5% | 55.6% | 31.8% | 61.3% | 75% | 88.2% | 45.0% | 29.6% | Relative inhibition rate (%) In vivo inactivation ([6]; treatment dose 500 μg/mL): 59.1%; Bactericidal activity (%) potato late blight (potato late blight): 36.0%; Bactericidal activity (%) Fusarium fujikuroi (Fusarium fujikuroi): 28.6%; Bactericidal activity (%) Rhizoctonia solani (Rhizoctonia solani): 46.1%; Corn borer Mortality (%) (corn borers): 30%; Bactericidal activity (%) Cucumber fusarium wilt (cucumber fusarium wilt): 26.9%; Bactericidal activity (%) Cercospora arachidicola (Cercospora arachidicola): 47.1%
CC(=NNC(=O)[C@@H]1Cc2c([nH]c3ccccc23)[C@H](C)N1)C(C)(C)C [Ic-28, (1S, 3S)—N′-(3,3-dimethyl-2-butylidene)-1-methyl-2,3,4,9-tetrahydropyridino [3,4-b] indol-3-formylhydrazine] | 45% | 18.2% | 28.0% | 53.8% | 41.7% | 45% | 48.6% | 16.7% | 55.4% | equivalent to the activity of commercial variety ningnanmycin | 32.0% | 25.6% | 58.1% | 36.4% | 18.9% | 56.8% | 100% | 3.8% | 14.3% | 21.3% | Mosquito larvae Mortality (%) (mosquito larvae; concentration 5 mg/kg): 20%; Relative inhibition rate (%) In vivo inactivation ([6]; treatment dose 500 μg/mL): 59.7%; Bactericidal activity (%) potato late blight (potato late blight): 30.4%; Bactericidal activity (%) Fusarium fujikuroi (Fusarium fujikuroi): 23.5%; Bactericidal activity (%) Rhizoctonia solani (Rhizoctonia solani): 8.3%; Corn borer Mortality (%) (corn borers): 40%; Bactericidal activity (%) Cucumber fusarium wilt (cucumber fusarium wilt): 4.5%; Bactericidal activity (%) Cercospora arachidicola (Cercospora arachidicola): 36.4%
